{"source": "patent US20120015919A1", "about": "“THERAPIES FOR TREATING CANCER USING COMBINATIONS OF COX-2 INHIBITORS AND AROMATASE INHIBITORS OR COMBINATIONS OF COX-2 INHIBITORS AND ESTROGEN RECEPTOR ANTAGONISTS” (Tragara Pharmaceuticals, Inc., priority 2007, published 2012)", "settings": "human, in vivo"}
{"compound": "CCOc1ccc(-c2cc(C)cn2-c2ccc(S(N)(=O)=O)cc2)cc1", "note": "[2-(4-ethoxyphenyl)-4-methyl-1-(4-sulfamoylphenyl)-pyrrole]", "values": [{"measurement": "gastric or duodenal toxicity compared to placebo", "result": "no increase"}]}
